# Measured values as given in US8017828B2, “Utilization of rare sugars in plant or microorganism” (Shikoku Research Institute Incorporated, priority 2004, dated 2011).
# Tests used:
# Bletilla striata = test: Growth and bulb formation of Bletilla striata seedlings in tissue culture; assay type: in vivo
# Experimental: Seedling plants of Bletilla striata obtained by sterile sowing were used in an experiment.
# As for the Bletilla striata, by using ½ strength MS medium supplemented with D-psicose, D-allose, D-glucose or D-frucose at a concentration of from 0.005% to 0.05% (w/v), the seedling plants were aseptically transplanted on Feb. 27, 2003, and then, cultivation was carried out under the same conditions as those of the strawberry in Example 3. Then, on Jun. 30, 2003, a survey was carried out with regard to the growth conditions of aerial part and underground part, the number of buds, the ratio of bulb formation, the bulb size and the like.
# [1] = test system: rice plant (variety: “Hinohikari”); test: Foliar spraying of sugar on pot-grown rice; assay type: in vivo
# Experimental: After seeds of a rice plant (variety: “Hinohikari”) were put in a nylon net and subjected to sterilization and a germination induction treatment in a growth chamber at 30° C. for 2 days while they were soaked in 0.1% (w/v) Benlate (Hokko Chemical Industry Co., Ltd.) in accordance with a common method, they were sown in a nursery tray filled with “Kumiai Ryujou Baido SD” (Kureha Chemical Industry Co., Ltd.) and raised in a phytotron (day temperature: 25° C. and night temperature: 18° C.) for about 2 weeks. Then, Wagner pots with a size of 1/5,000a were filled with “Kumiai Ryujou Baido SD” (Kureha Chemical Industry Co., Ltd.) and the raised rice seedlings were transplanted for permanent planting to the pots and the cultivation was started on Jul. 2, 2003 in the open air under the condition that the soil was covered with water in the pots. From Jul. 16, 2003, when the seedlings were confirmed to take root, water, a 0.02% (w/v) sugar solution, a 0.1% (w/v) sugar solution or a 0.5% (w/v) sugar solution was sprayed onto the whole plant on a three times weekly basis. As for the types of sugars, D-glucose, D-fructose and D-psicose were used and three pots were cultivated for each test plot. The cultivation was continued in such a manner that the water in pots was not dried up and after 5 g of Magamp K medium (HYPONeX JAPAN CORP., Ltd.) per pot was added as additional fertilization on Aug. 29, 2003, and the harvest and survey were carried out on Sep. 22, 2003. The survey items were plant length, number of tillers, leaf weight, husk weight, underground part weight and the like.
# [2] = test system: Brassica rapa var. amplexicaulis (variety: “Haru Ichiban”); test: Foliar spraying of sugar on Brassica rapa var. amplexicaulis; assay type: in vivo; conditions: 0.5% solution sprayed; for Terminal bud weight: control (water) 3.0; for Stem diameter: control (water) 22.8; for Number of lateral buds: control (water) 32.3; for Plant length: control (water) 49.3; for Total weight of lateral buds: control (water) 235.3
# Excerpt: Brassica rapa var. amplexicaulis is a vegetable in the Brassica family, and flower buds are harvested and used. As the same species of vegetables, broccoli, cauliflower and the like are exemplified, which are important horticultural crops. As for such a vegetable, development of flower buds has a large effect on the crop yield. Therefore, during the house cultivation of Brassica rapa var. amplexicaulis (variety: “Haru Ichiban”), foliar spraying of a sugar solution at a concentration of 0.5% (w/v) was carried out and effects on the growth and the development of flower buds were examined. The seeds of Brassica rapa var. amplexicaulis were sown in a 128-cell tray on Oct. 23, 2003 and raised for about 20 days. Then, the raised seedlings were transplanted for permanent planting with a planting distance of 40 cm on two rows with an inter row space of 50 cm in separate beds filled with soil for cultivation “Hana to Yasai no Tsuchi (garden soil for flowers and vegetables)” (Kurokawa Shubyo En) on Nov. 12, 2003. The cultivation was carried out by a simple fertigation system, and irrigation was carried out for 1 hour on a daily basis with a 2,000-fold dilution of Hyponex through an irrigation tube. The cultivation was carried out in a vinyl house without heating with side windows open. From Dec. 18, 2003, water or a 0.5% (w/v) sugar solution was sprayed onto the whole plant on a three times weekly basis. As for the types of sugars, D-glucose, D-fructose and D-psicose were used and five plants were cultivated for each test plot. On Feb. 23, 2004, three plants of medium size were harvested and a survey was carried out. The survey items were plant length, stem diameter, number of lateral buds, terminal bud weight, total weight of lateral buds and the like.
# [3] = test system: Pythium ultimum IFO 32426 strain; test: Oospore formation of Pythium ultimum in sugar solution; assay type: cell-based; conditions: 0.05% (w/v) sugar solution, 23° C., 4 days
# Experimental: With regard to Pythium ultimum that causes damping-off of spinach and the like, an effect of a rare sugar on oospore formation was examined.
# First, as the Pythium ultimum, IFO 32426 strain was used, and static culture thereof was carried out with 200 ml of V8 medium at 23° C. for 1 week. The resulting mycelial mat was well washed with sterile water and divided into 16 equal parts with forceps. This mycerial body was disentangled uniformly to form a small piece and immersed in 20 ml of a sugar solution at a concentration of 0.05% (w/v) and let stand at 23° C. for 4 days. […] Further, the same experiment was carried out using Pythium zingiberum IFO 30817 strain.
structure (smiles),measurement,setting,value
"O=C[C@H](O)[C@@H](O)[C@H](O)[C@H](O)CO [D-glucose, reference compound]",Aerial part weight,Bletilla striata; sugar 0.005% in medium,0.15 g
same,Bulb size,Bletilla striata; sugar 0.005% in medium,5.1 mm
same,Maximum plant length,Bletilla striata; sugar 0.005% in medium,7.3 cm
same,Maximum root length,Bletilla striata; sugar 0.005% in medium,4.9 cm
same,Number of buds,Bletilla striata; sugar 0.005% in medium,3.7
same,Number of leaves,Bletilla striata; sugar 0.005% in medium,4.1
same,Ratio of bulb formation,Bletilla striata; sugar 0.005% in medium,37%
same,Underground part weight,Bletilla striata; sugar 0.005% in medium,0.13 g
same,Aerial part weight,Bletilla striata; sugar 0.02% in medium,0.20 g
same,Bulb size,Bletilla striata; sugar 0.02% in medium,5.7 mm
same,Maximum plant length,Bletilla striata; sugar 0.02% in medium,7.2 cm
same,Maximum root length,Bletilla striata; sugar 0.02% in medium,5.1 cm
same,Number of buds,Bletilla striata; sugar 0.02% in medium,3.4
same,Number of leaves,Bletilla striata; sugar 0.02% in medium,3.9
same,Ratio of bulb formation,Bletilla striata; sugar 0.02% in medium,59%
same,Underground part weight,Bletilla striata; sugar 0.02% in medium,0.18 g
same,Aerial part weight,Bletilla striata; sugar 0.05% in medium,0.18 g
same,Bulb size,Bletilla striata; sugar 0.05% in medium,5.2 mm
same,Maximum plant length,Bletilla striata; sugar 0.05% in medium,6.5 cm
same,Maximum root length,Bletilla striata; sugar 0.05% in medium,6.1 cm
same,Number of buds,Bletilla striata; sugar 0.05% in medium,3.4
same,Number of leaves,Bletilla striata; sugar 0.05% in medium,4.0
same,Ratio of bulb formation,Bletilla striata; sugar 0.05% in medium,45%
same,Underground part weight,Bletilla striata; sugar 0.05% in medium,0.14 g
same,Dry husk weight,[1]; 0.02% sugar solution sprayed,17.2 g
same,Dry leaf weight,[1]; 0.02% sugar solution sprayed,34.0 g
same,Number of tillers,[1]; 0.02% sugar solution sprayed,29.3
same,Plant length,[1]; 0.02% sugar solution sprayed,74.0 cm
same,Dry husk weight,[1]; 0.10% sugar solution sprayed,17.6 g
same,Dry leaf weight,[1]; 0.10% sugar solution sprayed,35.5 g
same,Number of tillers,[1]; 0.10% sugar solution sprayed,30.0
same,Plant length,[1]; 0.10% sugar solution sprayed,75.5 cm
same,Dry husk weight,[1]; 0.50% sugar solution sprayed,17.9 g
same,Dry leaf weight,[1]; 0.50% sugar solution sprayed,37.3 g
same,Number of tillers,[1]; 0.50% sugar solution sprayed,31.3
same,Plant length,[1]; 0.50% sugar solution sprayed,74.8 cm
same,Terminal bud weight,[2],5.7 g
same,Stem diameter,[2],20.6 mm
same,Number of lateral buds,[2],32.0
same,Plant length,[2],56.3 cm
same,Total weight of lateral buds,[2],198.1 g
same,oospore formation,[3],no effect
O=C(CO)[C@H](O)[C@H](O)[C@H](O)CO [D-psicose],growth when the concentration added to the medium was increased,Bletilla striata; increased (high) concentration in medium,the growth thereof was delayed
same,Aerial part weight,Bletilla striata; sugar 0.005% in medium,0.24 g
same,Bulb size,Bletilla striata; sugar 0.005% in medium,6.2 mm
same,Maximum plant length,Bletilla striata; sugar 0.005% in medium,9.3 cm
same,Maximum root length,Bletilla striata; sugar 0.005% in medium,4.4 cm
same,Number of buds,Bletilla striata; sugar 0.005% in medium,4.1
same,Number of leaves,Bletilla striata; sugar 0.005% in medium,3.9
same,Ratio of bulb formation,Bletilla striata; sugar 0.005% in medium,45%
same,Underground part weight,Bletilla striata; sugar 0.005% in medium,0.26 g
same,Aerial part weight,Bletilla striata; sugar 0.02% in medium,0.28 g
same,Bulb size,Bletilla striata; sugar 0.02% in medium,5.6 mm
same,Maximum plant length,Bletilla striata; sugar 0.02% in medium,9.9 cm
same,Maximum root length,Bletilla striata; sugar 0.02% in medium,4.8 cm
same,Number of buds,Bletilla striata; sugar 0.02% in medium,3.3
same,Number of leaves,Bletilla striata; sugar 0.02% in medium,3.9
same,Ratio of bulb formation,Bletilla striata; sugar 0.02% in medium,65%
same,Underground part weight,Bletilla striata; sugar 0.02% in medium,0.22 g
same,Aerial part weight,Bletilla striata; sugar 0.05% in medium,0.20 g
same,Bulb size,Bletilla striata; sugar 0.05% in medium,5.1 mm
same,Maximum plant length,Bletilla striata; sugar 0.05% in medium,7.3 cm
same,Maximum root length,Bletilla striata; sugar 0.05% in medium,5.3 cm
same,Number of buds,Bletilla striata; sugar 0.05% in medium,4.0
same,Number of leaves,Bletilla striata; sugar 0.05% in medium,3.9
same,Ratio of bulb formation,Bletilla striata; sugar 0.05% in medium,67%
same,Underground part weight,Bletilla striata; sugar 0.05% in medium,0.13 g
same,Dry husk weight,[1]; 0.02% sugar solution sprayed,16.8 g
same,Dry leaf weight,[1]; 0.02% sugar solution sprayed,36.3 g
same,Number of tillers,[1]; 0.02% sugar solution sprayed,33.7
same,Plant length,[1]; 0.02% sugar solution sprayed,73.2 cm
same,Dry husk weight,[1]; 0.10% sugar solution sprayed,14.7 g
same,Dry leaf weight,[1]; 0.10% sugar solution sprayed,31.8 g
same,Number of tillers,[1]; 0.10% sugar solution sprayed,33.5
same,Plant length,[1]; 0.10% sugar solution sprayed,76.3 cm
same,Dry husk weight,[1]; 0.50% sugar solution sprayed,10.2 g
same,Dry leaf weight,[1]; 0.50% sugar solution sprayed,27.9 g
same,Number of tillers,[1]; 0.50% sugar solution sprayed,50.0
same,Plant length,[1]; 0.50% sugar solution sprayed,71.3 cm
same,Terminal bud weight,[2],8.8 g
same,Stem diameter,[2],26.9 mm
same,Number of lateral buds,[2],43.0
same,Plant length,[2],61.2 cm
same,Total weight of lateral buds,[2],225.0 g
same,oospore formation,[3],inhibited
